Where two headings read alike, the source gives them in different places.
Columns and labels:
[1] = target: T1, full-length beta-Catenin (Uniprot ID P35222) (Homo sapiens, UniProt P35222); assay: Fluorescence polarization IC50 (beta-catenin / 5FAM-TCF4 10-53 competition); type: binding
T1 construct: 10 nM full-length beta-Catenin (Uniprot ID P35222)
T1 sequence (P35222 1-781): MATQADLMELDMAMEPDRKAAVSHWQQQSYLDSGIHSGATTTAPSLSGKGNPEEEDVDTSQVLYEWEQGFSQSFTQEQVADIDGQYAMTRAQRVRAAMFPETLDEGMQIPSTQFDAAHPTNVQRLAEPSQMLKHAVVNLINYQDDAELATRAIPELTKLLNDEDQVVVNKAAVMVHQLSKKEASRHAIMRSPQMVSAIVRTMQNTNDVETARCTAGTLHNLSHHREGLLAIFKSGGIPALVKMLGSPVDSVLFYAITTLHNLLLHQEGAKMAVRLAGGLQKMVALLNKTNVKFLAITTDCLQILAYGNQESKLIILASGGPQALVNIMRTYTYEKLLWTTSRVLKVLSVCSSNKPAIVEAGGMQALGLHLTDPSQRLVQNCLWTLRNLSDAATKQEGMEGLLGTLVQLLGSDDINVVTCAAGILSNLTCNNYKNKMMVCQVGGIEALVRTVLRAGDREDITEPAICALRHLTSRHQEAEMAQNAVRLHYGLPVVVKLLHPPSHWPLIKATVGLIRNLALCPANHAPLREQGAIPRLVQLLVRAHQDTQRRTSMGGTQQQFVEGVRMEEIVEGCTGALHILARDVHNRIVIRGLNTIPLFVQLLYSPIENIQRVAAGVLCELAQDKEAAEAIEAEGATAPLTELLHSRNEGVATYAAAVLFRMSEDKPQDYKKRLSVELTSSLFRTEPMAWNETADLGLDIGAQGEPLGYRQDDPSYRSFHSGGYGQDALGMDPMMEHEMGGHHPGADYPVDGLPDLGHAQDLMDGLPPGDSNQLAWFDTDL

CHI Log D procedure = type: physicochemical
[2] = fluorescence polarization, read-out: beta-Catenin FP IC50

| SMILES | IC50 ([1]; read-out: FP EC50) | CHI Log D (CHI Log D procedure; pH 7.4) | IC50 ([1]; FP EC50 (nM)) | chromatographic logD (CHI Log D procedure; pH 7.4) | IC50 [1, 2] | chromatographic logD (CHI Log D procedure; pH 7.4, CHI Log D) | IC50 ([1]; read-out: bCat FP IC50) | logD (CHI Log D procedure; pH 7.4) |
| --- | --- | --- | --- | --- | --- | --- | --- | --- |
| CC[C@H](C)[C@@H]1NC(=O)[C@H](CC(=O)O)NC(=O)[C@]2(CC=CCCCC3(CCCC=CCCCCCC[C@@](C)(C(=O)N[C@@H](Cc4ccccc4)C(=O)N[C@@H](Cc4csc5ccccc45)C(=O)N[C@@H](CCC(N)=O)C(N)=O)NC(=O)[C@H](CCC(N)=O)NC(=O)[C@H](Cc4ccccc4)NC(=O)[C@H](C)NC(=O)[C@H](CCCCNC(=O)CN=[N+]=[N-])NC(=O)[C@H](CCC(=O)O)NC(=O)[C@H](CC(=O)O)NC3=O)NC1=O)CCCN2C(C)=O (stereo partly drawn) [I-591, Ac-PL3-Asp-Ile-B5-Asp-Glu-[AzAc]Lys-Ala-Phe-Gln-S8-Phe-BztA-Gln-NH2] | 64 nM | 2.348 | – | – | – | – | – | – |
| CC[C@H](C)[C@@H]1NC(=O)[C@H](CC(=O)O)NC(=O)[C@]2(CC=CCCCC3(CCCC=CCCCCCC[C@@](C)(C(=O)N[C@@H](Cc4ccccc4)C(=O)N[C@@H](Cc4csc5ccccc45)C(=O)N[C@@H](CCC(N)=O)C(N)=O)NC(=O)[C@H](CCC(N)=O)NC(=O)[C@H](Cc4ccccc4)NC(=O)[C@H](C)NC(=O)[C@H](CCCCNC(=O)CN=[N+]=[N-])NC(=O)[C@H](CCC(=O)O)NC(=O)[C@H](CC(=O)O)NC3=O)NC1=O)CCCN2C(C)=O (stereo partly drawn) [I-592, Ac-PL3-Asp-Ile-B5-Asp-Glu-[AzAc]Lys-Ala-Phe-Gln-S8-Phe-BztA-Gln-NH2] | 24 nM | 2.414 | – | – | – | – | – | – |
| CC[C@H](C)[C@@H]1NC(=O)[C@H](CC(=O)O)NC(=O)[C@]2(CC=CCCCC3(CCCC=CCCCCCC[C@@](C)(C(=O)N[C@@H](Cc4ccccc4)C(=O)N[C@@H](Cc4csc5ccccc45)C(=O)N[C@@H](CCC(N)=O)C(N)=O)NC(=O)[C@H](CCC(N)=O)NC(=O)[C@H](Cc4ccccc4)NC(=O)[C@H](CCCCNC(=O)CN=[N+]=[N-])NC(=O)[C@H](C)NC(=O)[C@H](CCC(=O)O)NC(=O)[C@H](CC(=O)O)NC3=O)NC1=O)CCCN2C(C)=O (stereo partly drawn) [I-593, Ac-PL3-Asp-Ile-B5-Asp-Glu-Ala-[AzAc]Lys-Phe-Gln-S8-Phe-BztA-Gln-NH2] | – | – | 68 nM | 2.12 | – | – | – | – |
| CC[C@H](C)[C@@H]1NC(=O)[C@H](CC(=O)O)NC(=O)[C@]2(CC=CCCCC3(CCCC=CCCCCCC[C@@](C)(C(=O)N[C@@H](Cc4ccccc4)C(=O)N[C@@H](Cc4csc5ccccc45)C(=O)N[C@@H](CCC(N)=O)C(N)=O)NC(=O)[C@H](CCCCNC(=O)CN=[N+]=[N-])NC(=O)[C@H](Cc4ccccc4)NC(=O)[C@H](C)NC(=O)[C@H](C)NC(=O)[C@H](CCC(=O)O)NC(=O)[C@H](CC(=O)O)NC3=O)NC1=O)CCCN2C(C)=O (stereo partly drawn) [I-594, Ac-PL3-Asp-Ile-B5-Asp-Glu-Ala-Ala-Phe-[AzAc]Lys-S8-Phe-BztA-Gln-NH2] | – | – | 87 nM | 2.61 | – | – | – | – |
| CC[C@H](C)[C@@H]1NC(=O)[C@H](CC(=O)O)NC(=O)[C@]2(CC=CCCCC3(CCCC=CCCCCCC[C@@](C)(C(=O)N[C@@H](Cc4ccccc4)C(=O)N[C@@H](Cc4csc5ccccc45)C(=O)N[C@@H](CCCCNC(=O)CN=[N+]=[N-])C(N)=O)NC(=O)[C@H](CCC(N)=O)NC(=O)[C@H](Cc4ccccc4)NC(=O)[C@H](C)NC(=O)[C@H](C)NC(=O)[C@H](CCC(=O)O)NC(=O)[C@H](CC(=O)O)NC3=O)NC1=O)CCCN2C(C)=O (stereo partly drawn) [I-595, Ac-PL3-Asp-Ile-B5-Asp-Glu-Ala-Ala-Phe-Gln-S8-Phe-BztA-[AzAc]Lys-NH2] | – | – | 57 nM | 2.64 | – | – | – | – |
| CC[C@H](C)[C@@H]1NC(=O)[C@H](CC(=O)O)NC(=O)[C@]2(CC=CCCCC3(CCCC=CCCCCCC[C@@](C)(C(=O)N[C@@H](Cc4ccccc4)C(=O)N[C@@H](Cc4csc5ccccc45)C(=O)N[C@@H](CCC(N)=O)C(=O)N[C@@H](CCCCNC(=O)CN=[N+]=[N-])C(N)=O)NC(=O)[C@H](CCC(N)=O)NC(=O)[C@H](Cc4ccccc4)NC(=O)[C@H](C)NC(=O)[C@H](C)NC(=O)[C@H](CCC(=O)O)NC(=O)[C@H](CC(=O)O)NC3=O)NC1=O)CCCN2C(C)=O (stereo partly drawn) [I-596, Ac-PL3-Asp-Ile-B5-Asp-Glu-Ala-Ala-Phe-Gln-S8-Phe-BztA-Gln-[AzAc]Lys-NH2] | 112 nM | 2.373 | – | – | – | – | – | – |
| CC[C@H](C)[C@@H]1NC(=O)[C@H](CC(=O)O)NC(=O)[C@]2(CC=CCCCC3(CCCC=CCCCCCC[C@@](C)(C(=O)N[C@@H](Cc4ccccc4)C(=O)N[C@@H](Cc4csc5ccccc45)C(=O)N[C@@H](CCC(N)=O)C(=O)N[C@@H](CCCCNC(=O)CN=[N+]=[N-])C(N)=O)NC(=O)[C@H](CCC(N)=O)NC(=O)[C@H](Cc4ccccc4)NC(=O)[C@H](C)NC(=O)[C@H](C)NC(=O)[C@H](CCC(=O)O)NC(=O)[C@H](CC(=O)O)NC3=O)NC1=O)CCCN2C(C)=O (stereo partly drawn) [I-597, Ac-PL3-Asp-Ile-B5-Asp-Glu-Ala-Ala-Phe-Gln-S8-Phe-BztA-Gln-[AzAc]Lys-NH2] | 76 nM | 2.39 | – | – | – | – | – | – |
| CC[C@H](C)[C@@H]1NC(=O)[C@H](CC(=O)O)NC(=O)[C@]2(CC=CCCCC3(CCCC=CCCCCCC[C@@](C)(C(=O)N[C@@H](Cc4ccccc4)C(=O)N[C@@H](Cc4csc5ccccc45)C(=O)N[C@@H](CCC(N)=O)C(N)=O)NC(=O)[C@H](CCC(N)=O)NC(=O)[C@H](Cc4ccccc4)NC(=O)[C@H](C)NC(=O)[C@H](C)NC(=O)[C@H](CCC(=O)O)NC(=O)[C@H](CC(=O)O)NC3=O)NC1=O)CCCN2C(=O)CCc1ccccn1 (stereo partly drawn) [I-602, 2PyPrpc-PL3-Asp-Ile-B5-Asp-Glu-Ala-Ala-Phe-Gln-S8-Phe-BztA-Gln-NH2] | – | – | – | – | 3150 nM | 3.15 | – | – |
| CC[C@H](C)[C@@H]1NC(=O)[C@H](CC(=O)O)NC(=O)[C@]2(CC=CCCCC3(CCCC=CCCCCCC[C@@](C)(C(=O)N[C@@H](Cc4ccccc4)C(=O)N[C@@H](Cc4csc5ccccc45)C(=O)N[C@@H](CCC(N)=O)C(N)=O)NC(=O)[C@H](CCC(N)=O)NC(=O)[C@H](Cc4ccccc4)NC(=O)[C@H](C)NC(=O)[C@H](C)NC(=O)[C@H](CN(CC)CC(=O)O)NC(=O)[C@H](CC(=O)O)NC3=O)NC1=O)CCCN2C(C)=O (stereo partly drawn) [I-608, Ac-PL3-Asp-Ile-B5-Asp-EtGa-Ala-Ala-Phe-Gln-S8-Phe-BztA-Gln-NH2] | 211 nM | 2.506 | – | – | 211 nM | – | 211 nM | 2.5 |
| CC[C@H](C)[C@@H]1NC(=O)[C@H](CC(=O)O)NC(=O)[C@]2(CC=CCCCC3(CCCC=CCCCCCC[C@@](C)(C(=O)N[C@@H](Cc4ccccc4)C(=O)N[C@@H](Cc4csc5ccccc45)C(=O)N[C@@H](CCC(N)=O)C(N)=O)NC(=O)[C@H](CCC(N)=O)NC(=O)[C@H](Cc4ccccc4)NC(=O)[C@H](C)NC(=O)[C@H](C)NC(=O)[C@H](CN(CC)CC(=O)O)NC(=O)[C@H](CC(=O)O)NC3=O)NC1=O)CCCN2C(C)=O (stereo partly drawn) [I-609, Ac-PL3-Asp-Ile-B5-Asp-EtGa-Ala-Ala-Phe-Gln-S8-Phe-BztA-Gln-NH2] | 80 nM | 2.534 | – | – | 80 nM | – | 80 nM | 2.5 |
| CC[C@H](C)[C@@H]1NC(=O)[C@H](CC(=O)O)NC(=O)[C@]2(CC=CCCCC3(CCCC=CCCCCCC[C@@](C)(C(=O)N[C@@H](Cc4ccccc4)C(=O)N[C@@H](Cc4csc5ccccc45)C(=O)N[C@@H](CCC(N)=O)C(N)=O)NC(=O)[C@H](CCC(N)=O)NC(=O)[C@H](Cc4ccccc4)NC(=O)[C@H](C)NC(=O)[C@H](C)NC(=O)[C@H](CN(CC(=O)O)CC(F)(F)F)NC(=O)[C@H](CC(=O)O)NC3=O)NC1=O)CCCN2C(C)=O (stereo partly drawn) [I-610, Ac-PL3-Asp-Ile-B5-Asp-TfeGA-Ala-Ala-Phe-Gln-S8-Phe-BztA-Gln-NH2] | 54 nM | 2.587 | – | – | 54 nM | – | 54 nM | 2.6 |
| CC[C@H](C)[C@@H]1NC(=O)[C@H](CC(=O)O)NC(=O)[C@]2(CC=CCCCC3(CCCC=CCCCCCC[C@@](C)(C(=O)N[C@@H](Cc4ccccc4)C(=O)N[C@@H](Cc4csc5ccccc45)C(=O)N[C@@H](CCC(N)=O)C(N)=O)NC(=O)[C@H](CCC(N)=O)NC(=O)[C@H](Cc4ccccc4)NC(=O)[C@H](C)NC(=O)[C@H](C)NC(=O)[C@H](CN(CC(=O)O)CC(F)(F)F)NC(=O)[C@H](CC(=O)O)NC3=O)NC1=O)CCCN2C(C)=O (stereo partly drawn) [I-611, Ac-PL3-Asp-Ile-B5-Asp-TfeGA-Ala-Ala-Phe-Gln-S8-Phe-BztA-Gln-NH2] | 55 nM | 2.595 | – | – | 55 nM | – | 55 nM | 2.6 |

Reference: patent US20240116985A1, “STAPLED PEPTIDES AND METHODS THEREOF” (priority 2020, published 2024)
